# Laboratory results as given in paper PMC9848300, “Discovery of novel enasidenib analogues targeting inhibition of mutant isocitrate dehydrogenase 2 as antileukaemic agents” (Journal of Enzyme Inhibition and Medicinal Chemistry, 2023).
# Substitutions are numbered along the chain they refer to.
# Key:
# IDH2 R140Q = conditions: Figure 2; cited from earlier work
# CCRF-CEM = experiment: NCI 60 antitumor screening (single dose / five doses); type: cell-based; conditions: Homo sapiens, CCRF-CEM
# HL-60(TB) = experiment: as above; type: cell-based; conditions: Homo sapiens, HL-60
# K-562 = experiment: as above; type: cell-based; conditions: Homo sapiens, K562
# MOLT-4 = experiment: as above; type: cell-based; conditions: Homo sapiens, MOLT-4
# RPMI-8226 = experiment: as above; type: cell-based; conditions: Homo sapiens, RPMI-8226
# SR = experiment: as above; type: cell-based; conditions: Homo sapiens, SR
# EKVX = experiment: as above; type: cell-based; conditions: Homo sapiens, EKVX
# HOP-92 = experiment: as above; type: cell-based; conditions: Homo sapiens, HOP-92
# COLO 205 = experiment: as above; type: cell-based; conditions: Homo sapiens, COLO 205
# HCT-116 = experiment: as above; type: cell-based; conditions: Homo sapiens, HCT-116
# HCT-15 = experiment: as above; type: cell-based; conditions: Homo sapiens, HCT-15
# HT29 = experiment: as above; type: cell-based, human; conditions: Homo sapiens, HT-29
# SW-620 = experiment: as above; type: cell-based, human; conditions: Homo sapiens, SW-620
# SF-295 = experiment: as above; type: cell-based; conditions: Homo sapiens, SF-295
# SF-539 = experiment: as above; type: cell-based; conditions: Homo sapiens, SF-539
# SNB-75 = experiment: as above; type: cell-based; conditions: Homo sapiens, SNB-75
# LOX IMVI = experiment: as above; type: cell-based; conditions: Homo sapiens, LOX IMVI
# MALME-3M = experiment: as above; type: cell-based; conditions: Homo sapiens, Malme-3M
# MDA-MB-435 = experiment: as above; type: cell-based; conditions: Homo sapiens, MDA-MB-435
# SK-MEL-28 = experiment: as above; type: cell-based; conditions: Homo sapiens, SK-MEL-28
# SK-MEL-5 = experiment: as above; type: cell-based; conditions: Homo sapiens, SK-MEL-5
# UACC-257 = experiment: as above; type: cell-based; conditions: Homo sapiens, UACC-257
# UACC-62 = experiment: as above; type: cell-based; conditions: Homo sapiens, UACC-62
# IGROV1 = experiment: as above; type: cell-based; conditions: Homo sapiens, IGROV-1
# NCI/ADR-RES = experiment: as above; type: cell-based; conditions: Homo sapiens, NCI/ADR-RES
# 786-0 = experiment: as above; type: cell-based; conditions: Homo sapiens, 786-0
# A498 = experiment: as above; type: cell-based; conditions: Homo sapiens, A498
# ACHN = experiment: as above; type: cell-based; conditions: Homo sapiens, ACHN
# RXF 393 = experiment: as above; type: cell-based; conditions: Homo sapiens, RXF 393
# SN 12C = experiment: as above; type: cell-based; conditions: Homo sapiens, SN12C
# UO-31 = experiment: as above; type: cell-based; conditions: Homo sapiens, UO-31
# DU-145 = experiment: as above; type: cell-based; conditions: Homo sapiens, DU-145
# MDA-MB-231/ATCC = experiment: as above; type: cell-based; conditions: Homo sapiens, MDA-MB-231
# BT-549 = experiment: as above; type: cell-based; conditions: Homo sapiens, BT-549
# T-47D = experiment: as above; type: cell-based; conditions: Homo sapiens, T47D
# MDA-MB-468 = experiment: as above; type: cell-based; conditions: Homo sapiens, MDA-MB-468
# IDH2^R140Q = target: T1, IDH2^R140Q (Homo sapiens, UniProt P48735, R140Q); experiment: biochemical
# T1 sequence (P48735 40-452 R140Q): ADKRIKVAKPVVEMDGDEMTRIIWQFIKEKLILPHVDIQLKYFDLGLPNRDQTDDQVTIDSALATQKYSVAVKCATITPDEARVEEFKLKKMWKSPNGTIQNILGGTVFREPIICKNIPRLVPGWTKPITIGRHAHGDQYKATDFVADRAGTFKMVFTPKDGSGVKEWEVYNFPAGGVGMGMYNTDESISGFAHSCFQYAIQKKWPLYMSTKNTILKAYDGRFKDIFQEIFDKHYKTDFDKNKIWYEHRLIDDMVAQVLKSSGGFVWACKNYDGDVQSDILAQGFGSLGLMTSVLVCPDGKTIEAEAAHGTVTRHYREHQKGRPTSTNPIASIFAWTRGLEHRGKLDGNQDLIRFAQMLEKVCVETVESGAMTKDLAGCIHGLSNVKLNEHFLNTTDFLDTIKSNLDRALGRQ
# wild type IDH2 = target: T2, wild type IDH2 (Homo sapiens, UniProt P48735); experiment: IDH2 enzyme inhibition assay (wild type IDH Assay Kit)
# T2 sequence (P48735 40-452): T1 sequence (P48735 40-452 R140Q) with Q101R
# IDH1 R132H = conditions: Figure 2; cited from earlier work
structure (smiles),measurement,setting,value
O=C(Nc1cccc(C(F)(F)F)c1)Nc1cc(S(=O)(=O)NC2CC2)ccc1-c1ccsc1 [AGI-6780],IC50,IDH2 R140Q,0.023 µM
Cc1ccc(Cl)cc1NC(=O)Nc1cc(NC(=O)c2ccccc2)ccc1N1CCCC1 [CP-17],IC50,IDH2 R140Q,0.041 µM
CC(C)(O)CNc1nc(Nc2ccnc(C(F)(F)F)c2)nc(-c2cccc(C(F)(F)F)n2)n1 [Enasidenib],GI50,CCRF-CEM,19.9 µM
same,GI50,HL-60(TB),19.9 µM
same,GI50,K-562,31.6 µM
same,GI50,MOLT-4,12.6 µM
same,GI50,RPMI-8226,19.9 µM
same,GI50,SR,19.9 µM
same,GI50,EKVX,19.9 µM
same,GI50,HOP-92,25.1 µM
same,GI50,COLO 205,19.9 µM
same,GI50,HCT-116,15.8 µM
same,GI50,HCT-15,19.9 µM
same,GI50,HT29,15.8 µM
same,GI50,SW-620,25.1 µM
same,GI50,SF-295,15.8 µM
same,GI50,SF-539,15.8 µM
same,GI50,SNB-75,15.8 µM
same,GI50,LOX IMVI,15.8 µM
same,GI50,MALME-3M,19.9 µM
same,GI50,MDA-MB-435,15.8 µM
same,GI50,SK-MEL-28,15.8 µM
same,GI50,SK-MEL-5,12.6 µM
same,GI50,UACC-257,19.9 µM
same,GI50,UACC-62,15.8 µM
same,GI50,IGROV1,31.6 µM
same,GI50,NCI/ADR-RES,15.8 µM
same,GI50,786-0,19.9 µM
same,GI50,A498,15.8 µM
same,GI50,ACHN,25.1 µM
same,GI50,RXF 393,19.9 µM
same,GI50,SN 12C,19.9 µM
same,GI50,UO-31,19.9 µM
same,GI50,DU-145,19.9 µM
same,GI50,MDA-MB-231/ATCC,19.9 µM
same,GI50,BT-549,15.8 µM
same,GI50,T-47D,15.8 µM
same,GI50,MDA-MB-468,19.9 µM
same,IC50,IDH2 R140Q,0.1 µM
same,IC50,IDH2^R140Q,0.0755 ± 0.00369 µM
same,IC50,wild type IDH2,2.33 ± 0.09 µM
CC(C)Nc1cc(Nc2cccc(C(F)(F)F)n2)nc(-c2cccc(C(F)(F)F)c2)c1 [III],IC50,IDH2 R140Q,0.074 µM
CC(C)Nc1cc(Nc2cccc(C(F)(F)F)n2)nc(-c2cccc(Cl)c2)c1 [II],IC50,IDH2 R140Q,0.06 µM
CC(C)Nc1cc(Nc2cc(C(F)(F)F)ccn2)nc(-c2ccccc2)c1 [I],IC50,IDH2 R140Q,0.055 µM
CC(C)(C)ONc1nc(Nc2ccnc(C(F)(F)F)c2)nc(-c2cccc(C(F)(F)F)n2)n1 [TQ05310],IC50,IDH2 R140Q,0.137 µM
C[C@@H](Nc1nc(N[C@H](C)C(F)(F)F)nc(-c2cccc(Cl)n2)n1)C(F)(F)F [Vorasidenib],IC50,IDH1 R132H,0.006 µM
